Assays:
[1] = test system: Npc1 transcript; test: qPCR of Npc1 transcript in liver; format: in vivo, mouse; settings: at 100 days
Method: (§1) Vorinostat (50 mg/Kg)—Vorinostat was first dissolved in DMSO (100 mg/ml) and then diluted with 9 volume of Polyethylene Glycol 400 (PEG). This drug solution was named as ‘solution A’. Solution A was diluted with equal volume of water where the final concentration of each component was as follows; Vorinostat, 5 mg/ml; DMSO, 5% and PEG, 45%. Mice were given weekly intraperitoneal (i.p) injections starting at 21 days. Vorinostat (100 mg/Kg)—Vorinostat was first dissolved in DMSO (200 mg/ml) and then mixed with 9 volumes of PEG. Rest of the methods and injections plan were as described above. HPBCD (4000 mg/Kg)—40% HPBCD solution prepared in water. Mice were given weekly i.p injections starting at 7 days. HPBCD (2000 mg/Kg)—20% HPBCD solution prepared in water. Mice were given weekly i.p injections starting at 7 days. TCF (Vorinostat, 50 mg/Kg+HPBCD, 2000 mg/Kg, DMSO, 5%+PEG, 45%)—To prepare the formulation, the ‘solution A’ was first prepared as described above and equal volume of 40% HPBCD solution was slowly layered on top of it. The solution was gently mixed for 10 min at RT on rocker set at medium speed. […]
(§2) Quantitative PCR (qPCR) was performed using Power SYBR Green RNA-to-CT 1-Step Kit and an ABI Prism 7500 Fast real-time PCR system (Applied Biosystems, Grand Island, USA). […] The relative amount of transcript was determined using comparative CT method. […]

[2] = test system: GFAP, MIP1α and CD68; test: qPCR of inflammatory markers in the brain; format: in vivo, mouse; settings: day 100, once weekly dosing
Method: as §1, §2

[3] = test system: NPC1 protein; test: NPC1 immunostaining of Purkinje cells in cerebellar sections; format: in vivo, mouse; settings: 100 days old mice
Method: Mice were sacrificed by asphyxiation using CO2. Harvested organs were immersed fixed in 10% neutral buffered formalin (˜4% formaldehyde) for 24 hrs at RT. The organs were subsequently stored in 70% alcohol at RT until transfer to paraffin. Paraffin-embedded tissue sections (4-5 μm) were dewaxed in xylene and alcohol. Calbindin antigen retrieval was done by pre-incubating deparaffinized samples with 0.05% proteinase K (Dako, Germany) in 50 mM Tris-HCl (pH 7.5) for 8 min at RT. CTSS and NPC1 was retrieved by boiling the sections in acidic condition for 30 min. Blocking was done either with 2% goat serum (for calbindin and NPC1) or 2% rabbit serum (for cathepsin S) for 30 min at RT. Sections were incubated with anti-calbindin (1:1000, C9848, Sigma), anti-cathepsin S (20 μg/ml, M-19, Santa Cruz Biotechnology), anti-NPC1 (custom made against human NPC1 protein, 20 μg/ml) overnight at 4° C. […] Vectashield (Vector laboratories) was used as mounting medium and processed for fluorescence microscopy.
(§3) Tissue sections after IFA and filipin stained fibroblasts were visualized with 40× oil-immersion objective lens (NA 1.35). […] Digital image collection were performed using an Olympus IX inverted fluorescence microscope and a Photometrix cooled CCD camera (CH350/LCCD) driven by DeltaVision software from Applied Precision (Seattle, Wash., USA). […] Images were analyzed using ImageJ software (NIH, MD, USA).

[4] = test system: Npc1^nmf164 fibroblasts; test: Filipin staining of cholesterol in cultured mouse skin fibroblasts; format: cell-based; settings: 5 μM Vo for 48 hrs
Method: Ear pinna was cleaned with 70% alcohol and 2-3 small pieces (3×3 mm) were chopped and placed in 70% alcohol for 2 min and transferred to DMEM. Tissues were cut into small pieces and 2 ml of 0.25% trypsin were added, vigorously vortexed for 2 min and incubated at 37° C. with vortexing every 10 min. Trypsin was inactivated by adding 2 ml of culture media (DMEM+10%FBS). Cells were collected by spin (1000 rpm for 5 min), and were grown in DMEM+10% FBS in the presence penicillin (50 U/ml) and streptomycin (50 μg/ml). For treatment with vorinostat, fibroblasts (4×10^4) were plated in 24 well plate containing glass slide. Npc1^nmf164 fibroblasts were treated with 5 μM vorinostat for 48 hrs. Cells incubated with 0.025% DMSO served as vehicle control. Cells were fixed with 4% paraformaldehyde followed by incubation with filipin (100 μg/ml) to stain cholesterol. Slides were mounted using Vectashield (Vector laboratories) and processed for fluorescence microscopy.
as §3

SMILES	Npc1 transcript levels in the liver [1]	levels of inflammatory markers GFAP, MIP1α and CD68 in the brain [2]	NPC1 staining in Purkinje cells (in words) [3]	cholesterol levels in NPC fibroblasts (filipin) [4]	cholesterol levels in NPC fibroblasts (filipin) ([4]; listed as Vorinostat)
CC(O)COC[C@H]1O[C@@H]2O[C@H]3[C@H](O)[C@@H](O)[C@@H](O[C@H]4[C@H](O)[C@@H](O)[C@@H](O[C@H]5[C@H](O)[C@@H](O)[C@@H](O[C@H]6[C@H](O)[C@@H](O)[C@@H](O[C@H]7[C@H](O)[C@@H](O)[C@@H](O[C@H]8[C@H](O)[C@@H](O)[C@@H](O[C@H]1[C@H](O)[C@H]2O)O[C@@H]8COCC(C)O)O[C@@H]7COCC(C)O)O[C@@H]6COCC(C)O)O[C@@H]5COCC(C)O)O[C@@H]4COCC(C)O)O[C@@H]3COCC(C)O (stereo partly drawn) [HPBCD, 2-Hydroxypropyl-β-cyclodextrin]	no effect on target Npc1 expression	reduced their levels comparably to TCF and better than Vo	–	–	–
O=C(CCCCCCC(=O)Nc1ccccc1)NO [vorinostat]	–	–	Slight staining of NPC1	reduced	decreased cholesterol levels in NPC cells to those seen in fibroblasts from control
